Reference: patent publication US9409905B2, “Antibacterial compounds and methods for use” (PTC THERAPEUTICS, INC., priority 2011, dated 2016)
≈ marks a conversion by molar mass, not a printed value.

Tests used:
[1] = tested on: Escherichia coli (E. coli) BAS849; test: Antibacterial activity, microbroth dilution MIC (Table 1); assay type: cell-based; conditions: microbroth dilution, super sensitive Gram-negative E. coli BAS849, read-out: MIC, BAS849
Text: (§1) The antibacterial activity from a microbroth dilution method may be presented as the minimum inhibitory concentration (MIC in μg/mL). The MIC value is the lowest concentration of drug which prevents macroscopically visible growth under test conditions.
(§2) Antibacterial activity of test compounds against the super sensitive Gram-negative Escherichia coli (E. coli) BAS849 bacterium, the control Gram-negative E. coli 25922 strain and the Gram-positive Staphylococcus aureus (S. aureus) 29213 bacterium are shown in Table 1.

[2] = tested on: Staphylococcus aureus (S. aureus) 29213; test: as above; assay type: cell-based; conditions: microbroth dilution, Gram-positive S. aureus 29213, read-out: MIC, 29213
Text: as §1, §2

E. coli 25922 = test: as above; assay type: cell-based, Escherichia coli; conditions: Escherichia coli; microbroth dilution; control Gram-negative E. coli 25922 strain; read-out: MIC, 25922
Text: as §1, §2

E. coli LZ3111 = test: Antibacterial activity, MIC, quinolone resistant strain (Table 2); assay type: cell-based; conditions: Escherichia coli, LZ3111, read-out: MIC LZ3111
Text: as §1
Mutations in these regions are known to confer a high level resistance to the quinolone class of antibiotics.

SMILES	MIC [1] [µg/mL]	MIC [2] [µg/mL]	MIC (E. coli 25922) [µg/mL]	MIC (E. coli LZ3111) [µg/mL]
CCc1cc(C(=O)O)c(=O)[nH]c1-c1cc(C)c2c(c1)cc(CN1CCCC1)n2C [Cpd 99, 6-(1,7-dimethyl-2-(pyrrolidin-1-ylmethyl)-1H-indol-5-yl)-5-ethyl-2-oxo-1,2-dihydropyridine-3-carboxylic acid]	< 1	12.5 to 150 (≈ 31.8 to 381 µM)	3.5 to 12.5 (≈ 8.89 to 31.8 µM)	12.5 to 150 (≈ 31.8 to 381 µM)
CCc1cc(C(=O)O)c(=O)[nH]c1-c1cc(C)c2c(c1)cc(CN1CCCCC1)n2C [Cpd 100, 6-(1,7-dimethyl-2-(piperidin-1-ylmethyl)-1H-indol-5-yl)-5-ethyl-2-oxo-1,2-dihydropyridine-3-carboxylic acid]	< 1	12.5 to 150 (≈ 30.7 to 368 µM)	3.5 to 12.5 (≈ 8.59 to 30.7 µM)	12.5 to 150 (≈ 30.7 to 368 µM)
CCc1cc(C(=O)O)c(=O)[nH]c1-c1cc(F)c2c(c1)cc(CN(CC)CC)n2C [Cpd 101, 6-(2-((diethylamino)methyl)-7-fluoro-1-methyl-1H-indol-5-yl)-5-ethyl-2-oxo-1,2-dihydropyridine-3-carboxylic acid]	< 1	12.5 to 150 (≈ 31.3 to 376 µM)	3.5 to 12.5 (≈ 8.76 to 31.3 µM)	12.5 to 150 (≈ 31.3 to 376 µM)
CCc1cc(C(=O)O)c(=O)[nH]c1-c1cc(F)c2c(c1)cc(CN1CCCCC1)n2C [Cpd 102, 5-ethyl-6-(7-fluoro-1-methyl-2-(piperidin-1-ylmethyl)-1H-indol-5-yl)-2-oxo-1,2-dihydropyridine-3-carboxylic acid]	< 1	12.5 to 150 (≈ 30.4 to 365 µM)	3.5 to 12.5 (≈ 8.51 to 30.4 µM)	12.5 to 150 (≈ 30.4 to 365 µM)
CCc1cc(C(=O)O)c(=O)[nH]c1-c1cc(C)c2c(c1)cc(CN1CCOCC1)n2C [Cpd 103, 6-(1,7-dimethyl-2-(morpholinomethyl)-1H-indol-5-yl)-5-ethyl-2-oxo-1,2-dihydropyridine-3-carboxylic acid]	< 1	12.5 to 150 (≈ 30.5 to 366 µM)	12.5 to 150 (≈ 30.5 to 366 µM)	12.5 to 150 (≈ 30.5 to 366 µM)
CCc1cc(C(=O)O)c(=O)[nH]c1-c1cc(C)c2c(c1)cc(CN(CC)CC)n2C [Cpd 104, 6-(2-((diethylamino)methyl)-1,7-dimethyl-1H-indol-5-yl)-5-ethyl-2-oxo-1,2-dihydropyridine-3-carboxylic acid]	< 1	12.5 to 150 (≈ 31.6 to 379 µM)	3.5 to 12.5 (≈ 8.85 to 31.6 µM)	12.5 to 150 (≈ 31.6 to 379 µM)
CCc1cc(C(=O)O)c(=O)[nH]c1-c1cc(C)c2c(c1)cc(CN(C)C)n2C [Cpd 105, 6-(2-((dimethylamino)methyl)-1,7-dimethyl-1H-indol-5-yl)-5-ethyl-2-oxo-1,2-dihydropyridine-3-carboxylic acid]	< 1	12.5 to 150 (≈ 34 to 408 µM)	3.5 to 12.5 (≈ 9.53 to 34 µM)	12.5 to 150 (≈ 34 to 408 µM)
CCc1cc(C(=O)O)c(=O)[nH]c1-c1cc(F)c2c(c1)cc(CN(C)C)n2C [Cpd 106, 6-(2-((dimethylamino)methyl)-7-fluoro-1-methyl-1H-indol-5-yl)-5-ethyl-2-oxo-1,2-dihydropyridine-3-carboxylic acid]	< 1	12.5 to 150 (≈ 33.7 to 404 µM)	1 to 3.5 (≈ 2.69 to 9.42 µM)	12.5 to 150 (≈ 33.7 to 404 µM)
CCc1cc(C(=O)O)c(=O)[nH]c1-c1cc2cc(CN3CCCC3)n(C)c2cc1OC [Cpd 107, 5-ethyl-6-(6-methoxy-1-methyl-2-(pyrrolidin-1-ylmethyl)-1H-indol-5-yl)-2-oxo-1,2-dihydropyridine-3-carboxylic acid]	12.5 to 150 (≈ 30.5 to 366 µM)	12.5 to 150 (≈ 30.5 to 366 µM)	12.5 to 150 (≈ 30.5 to 366 µM)	12.5 to 150 (≈ 30.5 to 366 µM)
CCc1cc(C(=O)O)c(=O)[nH]c1-c1cc2cc(CN3CCOCC3)n(C)c2cc1OC [Cpd 108, 5-ethyl-6-(6-methoxy-1-methyl-2-(morpholinomethyl)-1H-indol-5-yl)-2-oxo-1,2-dihydropyridine-3-carboxylic acid]	12.5 to 150 (≈ 29.4 to 353 µM)	12.5 to 150 (≈ 29.4 to 353 µM)	12.5 to 150 (≈ 29.4 to 353 µM)	12.5 to 150 (≈ 29.4 to 353 µM)
CCc1c(-c2ccc3c(c2)cc(CN2CCC2)n3C)[nH]c(=O)c(C(=O)O)c1C(=O)O [Cpd 109, 6-(2-(azetidin-1-ylmethyl)-1-methyl-1H-indol-5-yl)-5-ethyl-2-oxo-1,2-dihydropyridine-3,4-dicarboxylic acid]	12.5 to 150 (≈ 30.5 to 366 µM)	12.5 to 150 (≈ 30.5 to 366 µM)	12.5 to 150 (≈ 30.5 to 366 µM)	12.5 to 150 (≈ 30.5 to 366 µM)
CCc1c(-c2ccc3c(c2)cc(CN2CCCC2)n3C)[nH]c(=O)c(C(=O)O)c1C(=O)O [Cpd 110, 5-ethyl-6-(1-methyl-2-(pyrrolidin-1-ylmethyl)-1H-indol-5-yl)-2-oxo-1,2-dihydropyridine-3,4-dicarboxylic acid]	12.5 to 150 (≈ 29.5 to 354 µM)	12.5 to 150 (≈ 29.5 to 354 µM)	12.5 to 150 (≈ 29.5 to 354 µM)	12.5 to 150 (≈ 29.5 to 354 µM)
CCc1c(-c2ccc3c(c2)cc(CN(C)C)n3C)[nH]c(=O)c(C(=O)O)c1C(=O)O [Cpd 111, 6-(2-((dimethylamino)methyl)-1-methyl-1H-indol-5-yl)-5-ethyl-2-oxo-1,2-dihydropyridine-3,4-dicarboxylic acid]	12.5 to 150 (≈ 31.5 to 377 µM)	12.5 to 150 (≈ 31.5 to 377 µM)	12.5 to 150 (≈ 31.5 to 377 µM)	12.5 to 150 (≈ 31.5 to 377 µM)
CCc1cc(C(=O)O)c(=O)[nH]c1-c1ccc2c(c1)cc(CNC)n2C [Cpd 112, 5-ethyl-6-(1-methyl-2-((methylamino)methyl)-1H-indol-5-yl)-2-oxo-1,2-dihydropyridine-3-carboxylic acid]	< 1	12.5 to 150 (≈ 36.8 to 442 µM)	< 1	12.5 to 150 (≈ 36.8 to 442 µM)
CCc1cc(C(=O)O)c(=O)[nH]c1-c1ccc2c(c1)cc(CNC(C)(C)C)n2C [Cpd 113, 6-(2-((tert-butylamino)methyl)-1-methyl-1H-indol-5-yl)-5-ethyl-2-oxo-1,2-dihydropyridine-3-carboxylic acid]	< 1	12.5 to 150 (≈ 32.8 to 393 µM)	< 1	12.5 to 150 (≈ 32.8 to 393 µM)
CCc1cc(C(=O)O)c(=O)[nH]c1-c1ccc2c(c1)cc(CNCc1ccccc1)n2C [Cpd 114, 6-(2-((benzylamino)methyl)-1-methyl-1H-indol-5-yl)-5-ethyl-2-oxo-1,2-dihydropyridine-3-carboxylic acid]	< 1	3.5 to 12.5 (≈ 8.42 to 30.1 µM)	< 1	12.5 to 150 (≈ 30.1 to 361 µM)
CCc1cc(C(=O)O)c(=O)[nH]c1-c1ccc2c(c1)cc(CNC(C)(C)c1ccccc1)n2C [Cpd 115, 5-ethyl-6-(1-methyl-2-((2-phenylpropan-2-ylamino)methyl)-1H-indol-5-yl)-2-oxo-1,2-dihydropyridine-3-carboxylic acid]	< 1	1 to 3.5 (≈ 2.25 to 7.89 µM)	< 1	12.5 to 150 (≈ 28.2 to 338 µM)
CCc1cc(C(=O)O)c(=O)[nH]c1-c1ccc2c(c1)cc(CN[C@H](C)c1ccccc1)n2C [Cpd 116, (R)-5-ethyl-6-(1-methyl-2-((1-phenylethylamino)methyl)-1H-indol-5-yl)-2-oxo-1,2-dihydropyridine-3-carboxylic acid]	< 1	1 to 3.5 (≈ 2.33 to 8.15 µM)	< 1	12.5 to 150 (≈ 29.1 to 349 µM)
CCc1cc(C(=O)O)c(=O)[nH]c1-c1ccc2c(c1)cc(CN[C@@H](C)c1ccccc1)n2C [Cpd 117, (S)-5-ethyl-6-(1-methyl-2-((1-phenylethylamino)methyl)-1H-indol-5-yl)-2-oxo-1,2-dihydropyridine-3-carboxylic acid]	< 1	12.5 to 150 (≈ 29.1 to 349 µM)	< 1	12.5 to 150 (≈ 29.1 to 349 µM)
CCc1cc(C(=O)O)c(=O)[nH]c1-c1ccc2c(c1)cc(CN[C@H](CC)c1ccccc1)n2C [Cpd 118, (R)-5-ethyl-6-(1-methyl-2-((1-phenylpropylamino)methyl)-1H-indol-5-yl)-2-oxo-1,2-dihydropyridine-3-carboxylic acid]	< 1	1 to 3.5 (≈ 2.25 to 7.89 µM)	1 to 3.5 (≈ 2.25 to 7.89 µM)	12.5 to 150 (≈ 28.2 to 338 µM)
CCc1cc(C(=O)O)c(=O)[nH]c1-c1ccc2c(c1)cc(CN[C@@H](CC)c1ccccc1)n2C [Cpd 119, (S)-5-ethyl-6-(1-methyl-2-((1-phenylpropylamino)methyl)-1H-indol-5-yl)-2-oxo-1,2-dihydropyridine-3-carboxylic acid]	< 1	3.5 to 12.5 (≈ 7.89 to 28.2 µM)	1 to 3.5 (≈ 2.25 to 7.89 µM)	12.5 to 150 (≈ 28.2 to 338 µM)
CCc1cc(C(=O)O)c(=O)[nH]c1-c1ccc2c(c1)cc(CNCc1ccccn1)n2C [Cpd 120, 5-ethyl-6-(1-methyl-2-((pyridin-2-ylmethylamino)methyl)-1H-indol-5-yl)-2-oxo-1,2-dihydropyridine-3-carboxylic acid]	< 1	3.5 to 12.5 (≈ 8.4 to 30 µM)	< 1	12.5 to 150 (≈ 30 to 360 µM)
CCc1cc(C(=O)O)c(=O)[nH]c1-c1ccc2c(c1)cc(CN1CC[C@H](N)C1)n2C [Cpd 126, (S)-6-(2-((3-aminopyrrolidin-1-yl)methyl)-1-methyl-1H-indol-5-yl)-5-ethyl-2-oxo-1,2-dihydropyridine-3-carboxylic acid]	3.5 to 12.5 (≈ 8.87 to 31.7 µM)	12.5 to 150 (≈ 31.7 to 380 µM)	12.5 to 150 (≈ 31.7 to 380 µM)	12.5 to 150 (≈ 31.7 to 380 µM)
CCc1cc(C(=O)O)c(=O)[nH]c1-c1ccc2c(c1)cc(CN1CCC(NC)C1)n2C (stereo not shown) [Cpd 127, 5-ethyl-6-(1-methyl-2-((3-(methylamino)pyrrolidin-1-yl)methyl)-1H-indol-5-yl)-2-oxo-1,2-dihydropyridine-3-carboxylic acid]	1 to 3.5 (≈ 2.45 to 8.57 µM)	12.5 to 150 (≈ 30.6 to 367 µM)	12.5 to 150 (≈ 30.6 to 367 µM)	12.5 to 150 (≈ 30.6 to 367 µM)
CCc1cc(C(=O)O)c(=O)[nH]c1-c1ccc2c(c1)cc(CN1CCC(N(C)C)C1)n2C (stereo not shown) [Cpd 128, 6-(2-((3-(dimethylamino)pyrrolidin-1-yl)methyl)-1-methyl-1H-indol-5-yl)-5-ethyl-2-oxo-1,2-dihydropyridine-3-carboxylic acid]	< 1	12.5 to 150 (≈ 29.6 to 355 µM)	1 to 3.5 (≈ 2.37 to 8.28 µM)	12.5 to 150 (≈ 29.6 to 355 µM)
